Values quoted from earlier work in US20200080027A1, “ADVANCED NOVEL ECO-FRIENDLY COMPOSITIONS” (priority 2015, published 2020).

Columns and labels:
normal volunteers = settings: 15 g/day for 10 days, 18 normal volunteers
[1] = skin contact
human = human consumption

Xanthan gum
laxative effect (normal volunteers): highly efficient laxative

[K+].[OH-] [Potassium hydroxide]
concentration of solution that is corrosive [1]: higher than 2%

C/C=C/C=C/C(=O)[O-].[K+] [Potassium sorbate]
solubility in water (at 20° C.): 58.2% | maximum acceptable daily intake (human): 25 mg/kg | genotoxicity / mutagenicity in vitro (human blood cells): both genotoxic and mutagenic | carcinogenic effects (rats): not been found to have any carcinogenic effects

O=C([O-])c1ccccc1.[Na+] [Sodium benzoate]
doses with no adverse effects in humans (humans): 647-825 mg/kg of body weight per day

Span 80
water solubility: insoluble in water
